Laboratory results as given in patent US20250215029A1 (Recludix Pharma, Inc., priority 2022, published 2025).

Target: T1, pY641-STAT6 in PBMC (Homo sapiens, UniProt P42226)
T1 construct: Cryopreserved Peripheral Blood Mononuclear Cells (PBMC) are from AllCells; host or cells: cryopreserved PBMC
T1 sequence (P42226 1-847): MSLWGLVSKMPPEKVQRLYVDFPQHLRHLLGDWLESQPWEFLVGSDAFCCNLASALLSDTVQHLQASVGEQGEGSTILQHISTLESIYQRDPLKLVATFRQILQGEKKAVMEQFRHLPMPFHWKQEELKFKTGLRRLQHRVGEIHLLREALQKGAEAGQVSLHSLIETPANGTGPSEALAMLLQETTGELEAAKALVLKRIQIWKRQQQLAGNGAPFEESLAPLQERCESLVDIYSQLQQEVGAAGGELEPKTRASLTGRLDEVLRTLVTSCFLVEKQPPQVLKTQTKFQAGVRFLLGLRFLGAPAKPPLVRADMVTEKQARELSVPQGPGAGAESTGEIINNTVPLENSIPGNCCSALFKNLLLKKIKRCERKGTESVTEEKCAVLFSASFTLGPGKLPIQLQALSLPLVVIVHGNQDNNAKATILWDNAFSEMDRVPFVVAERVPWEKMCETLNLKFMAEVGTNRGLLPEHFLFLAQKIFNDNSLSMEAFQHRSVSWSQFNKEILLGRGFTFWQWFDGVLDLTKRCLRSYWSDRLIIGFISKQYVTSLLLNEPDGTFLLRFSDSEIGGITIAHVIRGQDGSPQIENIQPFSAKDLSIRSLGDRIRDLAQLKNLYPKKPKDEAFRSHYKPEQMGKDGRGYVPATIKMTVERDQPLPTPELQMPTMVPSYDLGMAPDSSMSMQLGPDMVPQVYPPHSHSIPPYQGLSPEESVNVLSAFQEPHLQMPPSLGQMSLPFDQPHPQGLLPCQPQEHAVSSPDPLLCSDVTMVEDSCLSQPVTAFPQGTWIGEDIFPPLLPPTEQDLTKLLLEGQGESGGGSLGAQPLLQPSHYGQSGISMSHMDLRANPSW
Experiment: MSD-pSTAT-PBMC Assay (pSTAT6, IL-4 stimulated)
Assay type: cell-based
Conditions: PBMC, compound 3 hrs, then 1 ng/mL IL-4 for 10 min; Table 115; read-out: STAT6
Outline: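 MSD electrochemiluminescence read-out: total STAT captured, probed with anti-pY641-STAT6 or anti-pY705-STAT3. Human PBMC, 3 h compound pretreatment, 10 min stimulation (IL-4 1 ng/mL or IL-6 10 ng/mL). Unstimulated signal subtracted, DMSO-normalized, variable-slope IC50.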

IC50 [nM]	Compound
< 100	CC(C)(C)C(=O)SCCOP(=O)(OCCSC(=O)C(C)(C)C)C(F)(F)c1ccc2sc(C(=O)N[C@H]3CCC[C@H]4CC[C@@H](C(=O)N5C[C@@H](c6ccccc6)[C@H](C#N)C56CC6)N4C3=O)cc2c1 (single isomer, unassigned) [Compound 1080]

Same assay, conditions: STAT6, PBMC, compound 3 hrs, then 1 ng/mL IL-4 for 10 min; Table 115

Compound	IC50 [nM]
CC(C)OC(=O)[C@H](C)NP(=O)(Cc1ccc2ccc(C(=O)N[C@H]3CCCC[C@H]4CC[C@@H](C(=O)N5C[C@@H](c6cc[nH]c(=O)c6)CC56CC6)N4C3=O)cc2c1)Oc1ccccc1 (stereo partly drawn) [Compound 424, isopropyl (((7-(((3S,6S,10aS)-5-oxo-3-((R)-6-(2-oxo-1,2-dihydropyridin-4-yl)-4-azaspiro[2.4]heptane-4-carbonyl)decahydropyrrolo[1,2-a]azocin-6-yl)carbamoyl)naphthalen-2-yl)methyl)(phenoxy)phosphoryl)-L-alaninate]	100 to 1000
CCCOC(=O)[C@H](C)NP(=O)(Oc1ccccc1)C(F)c1ccc2sc(C(=O)N[C@H]3CCCCC[C@H]4[C@H](O)C[C@@H](C(=O)N5CC(C#N)[C@H](c6ccccc6)C5)N4C3=O)cc2c1 (relative stereo) [Compound 270, propyl (((2-(((1R,3S,6S,11aS)-3-((rel-trans)-3-cyano-4-phenylpyrrolidine-1-carbonyl)-1-hydroxy-5-oxodecahydro-1H-pyrrolo[1,2-a]azonin-6-yl)carbamoyl)benzo [b]thiophen-5-yl)fluoromethyl) (phenoxy)phosphoryl)-L-alaninate]	100 to 1000
CCCOC(=O)[C@H](C)NP(=O)(Oc1ccccc1)[C@@H](F)c1ccc2sc(C(=O)N[C@H]3CCCC[C@H]4CC[C@@H](C(=O)N5C(=O)N(c6ccc(C)nc6)C(=O)C56CC6)N4C3=O)cc2c1 (stereo partly drawn) [Compound 328, propyl (((R)-fluoro(2-(((3S,6S,10aS)-3-(6-(6-methylpyridin-3-yl)-5,7-dioxo-4,6-diazaspiro[2.4]heptane-4-carbonyl)-5-oxodecahydropyrrolo [1,2-a]azocin-6-yl)carbamoyl)benzo [b]thiophen-5-yl)methyl)(phenoxy)phosphoryl)-L-alaninate]	100 to 1000
CCCOC(=O)[C@H](C)NP(=O)(Oc1ccccc1)C(F)c1ccc2sc(C(=O)N[C@H]3CCCC[C@H]4CC[C@@H](C(=O)N5C(=O)N(c6cccnc6)C(=O)C56CC6)N4C3=O)cc2c1 (stereo partly drawn) [Compound 452, propyl (((2-(((3S,6S,10aS)-3-(5,7-dioxo-6-(pyridin-3-yl)-4,6-diazaspiro[2.4]heptane-4-carbonyl)-5-oxodecahydropyrrolo [1,2-a]azocin-6-yl)carbamoyl)benzo [b]thiophen-5-yl)fluoromethyl) (phenoxy)phosphoryl)-L-alaninate]	< 100
CCCOC(=O)[C@H](C)N[P@@](=O)(Oc1ccccc1)[C@@H](F)c1ccc2sc(C(=O)N[C@H]3CCCC[C@H]4CC[C@@H](C(=O)N5C[C@@H](c6cccnc6)CC56CC6)N4C3=O)cc2c1 (stereo in doubt) [Compound 460, propyl (((R)-fluoro(2-(((3S,6S,10aS)-5-oxo-3-((S)-6-(pyridin-3-yl)-4-azaspiro[2.4]heptane-4-carbonyl)decahydropyrrolo[1,2-a]azocin-6-yl)carbamoyl)benzo [b]thiophen-5-yl)methyl)(phenoxy)phosphoryl)-L-alaninate]	< 100
CCCOC(=O)[C@H](C)NP(=O)(Oc1ccccc1)C(F)c1ccc2sc(C(=O)N[C@H]3CCCC[C@H]4CC[C@@H](C(=O)N5C[C@H](c6cccnc6)CC56CC6)N4C3=O)cc2c1 (stereo in doubt) [Compound 459, propyl (((S)-fluoro(2-(((3S,6S,10aS)-5-oxo-3-((S)-6-(pyridin-3-yl)-4-azaspiro[2.4]heptane-4-carbonyl)decahydropyrrolo[1,2-a]azocin-6-yl)carbamoyl)benzo [b]thiophen-5-yl)methyl)(phenoxy)phosphoryl)-L-alaninate]	< 100
CCCOC(=O)[C@H](C)NP(=O)(Oc1ccccc1)C(C)(F)c1ccc2sc(C(=O)N[C@H]3CCCC[C@H]4CC[C@@H](C(=O)N5CCC(c6cccnc6)C5)N4C3=O)cc2c1 (stereo partly drawn) [Compound 314, propyl ((1-fluoro-1-(2-(((3S,6S,10aS)-5-oxo-3-(3-(pyridin-3-yl)pyrrolidine-1-carbonyl)decahydropyrrolo[1,2-a]azocin-6-yl)carbamoyl)benzo [b]thiophen-5-yl)ethyl)(phenoxy)phosphoryl)-L-alaninate]	> 3000
C[C@H](NP(=O)(Cc1ccc2ccc(C(=O)N[C@H]3CCCC[C@H]4CC[C@@H](C(=O)N5CC(c6ccccc6)CC56CC6)N4C3=O)cc2c1)Oc1ccccc1)C(=O)OCC(C)(C)C (stereo partly drawn) [Compound 436, neopentyl (((7-(((3S,6S,10aS)-5-oxo-3-(6-phenyl-4-azaspiro[2.4]heptane-4-carbonyl)decahydropyrrolo[1,2-a]azocin-6-yl)carbamoyl)naphthalen-2-yl)methyl)(phenoxy)phosphoryl)-L-alaninate]	> 3000
CCCOC(=O)[C@H](C)NP(=O)(Oc1ccccc1)[C@H](F)c1ccc2sc(C(=O)N[C@H]3CCC[C@H]4CC[C@@H](C(=O)N5C[C@@H](c6cccnc6)[C@H](C#N)C56CC6)N4C3=O)cc2c1 (single isomer, unassigned) [Compound 355]	< 100
CCCOC(=O)[C@H](C)NP(=O)(Oc1ccccc1)[C@@H](F)c1ccc2sc(C(=O)N[C@H]3CCCC[C@H]4CC[C@@H](C(=O)N5C[C@H](c6cncc(Cl)c6)[C@@H](C#N)C56CC6)N4C3=O)cc2c1 (single isomer, unassigned) [Compound 370]	< 100
COCCOC(=O)[C@H](COC)NP(=O)(Oc1ccccc1)[C@@H](F)c1ccc2sc(C(=O)N[C@H]3CCCC[C@H]4CC[C@@H](C(=O)N5C[C@H](c6ccccc6)[C@@H](C#N)C56CC6)N4C3=O)cc2c1 (stereo partly drawn) [Compound 376, 2-methoxyethyl N-(((R)-(2-(((3S,6S,10aS)-3-((6S,7R)-7-cyano-6-phenyl-4-azaspiro[2.4]heptane-4-carbonyl)-5-oxodecahydropyrrolo [1,2-a]azocin-6-yl)carbamoyl)benzo [b]thiophen-5-yl)fluoromethyl) (phenoxy)phosphoryl)-O-methyl-L-serinate]	< 100
CCCOC(=O)[C@H](C)NP(=O)(Oc1ccccc1)[C@@H](F)c1ccc2sc(C(=O)N[C@H]3CCC[C@H]4CC[C@@H](C(=O)N5C(=O)N(c6cccnc6)C(=O)C56CC6)N4C3=O)cc2c1 (stereo partly drawn) [Compound 469, propyl (((R)-(2-(((3S,6S,9aS)-3-(5,7-dioxo-6-(pyridin-3-yl)-4,6-diazaspiro[2.4]heptane-4-carbonyl)-5-oxooctahydro-1H-pyrrolo[1,2-a]azepin-6-yl)carbamoyl)benzo [b]thiophen-5-yl)fluoromethyl) (phenoxy)phosphoryl)-L-alaninate]	100 to 1000
CCCOC(=O)[C@H](C)NP(=O)(Oc1ccccc1)C(C)c1ccc2ccc(C(=O)N[C@H]3CCCC[C@H]4CC[C@@H](C(=O)N5C[C@@H](c6ccccc6)CC56CC6)N4C3=O)cc2c1 (single isomer, unassigned) [Compound 425]	> 3000
CCCOC(=O)[C@H](C)NP(=O)(Oc1ccccc1)C(F)c1ccc2ccc(C(=O)N[C@H]3CCCC[C@H]4CC[C@@H](C(=O)N5C[C@@H](c6ccn(C)c(=O)c6)CC56CC6)N4C3=O)cc2c1 (stereo partly drawn) [Compound 441, propyl ((fluoro(7-(((3S,6S,10aS)-3-((R)-6-(1-methyl-2-oxo-1,2-dihydropyridin-4-yl)-4-azaspiro[2.4]heptane-4-carbonyl)-5-oxodecahydropyrrolo [1,2-a]azocin-6-yl)carbamoyl)naphthalen-2-yl)methyl)(phenoxy)phosphoryl)-L-alaninate]	< 100
CCCOC(=O)[C@H](C)NP(=O)(Oc1ccccc1)C(F)c1ccc2sc(C(=O)N[C@H]3CCCC[C@H]4CC[C@@H](C(=O)N5CC(c6ccn(C)c(=O)c6)CC56CC6)N4C3=O)cc2c1 (stereo partly drawn) [Compound 449, propyl ((fluoro(2-(((3S,6S,10aS)-3-(6-(1-methyl-2-oxo-1,2-dihydropyridin-4-yl)-4-azaspiro[2.4]heptane-4-carbonyl)-5-oxodecahydropyrrolo [1,2-a]azocin-6-yl)carbamoyl)benzo [b]thiophen-5-yl)methyl)(phenoxy)phosphoryl)-L-alaninate]	100 to 1000

Same assay, conditions: read-out: STAT6; PBMC, compound 3 hrs, then 1 ng/mL IL-4 for 10 min; Table 115

Compound	IC50 [nM]
CCCOC(=O)[C@H](C)NP(=O)(Oc1ccccc1)[C@@H](F)c1ccc2sc(C(=O)N[C@H]3CCCC[C@H]4CC[C@@H](C(=O)N5C[C@H](c6cccc(OC)c6)[C@@H](C#N)C56CC6)N4C3=O)cc2c1 (single isomer, unassigned) [Compound 336]	< 100
